Experiments:
[1] = test system: LECs from adult human skin (HMLEC-dLyAd); assay: Lymphatic endothelial cell (LEC) migration scratch assay with HFD-lymph; format: cell-based; conditions: 2% HFD-lymph; celecoxib 20 μM, MAZ51 5 μM
Protocol: LECs from adult human skin (HMLEC-dLyAd) were obtained from Lonza (Australia) at the 3rd passage. Cells were thawed and expanded in a T-75 flask at a minimum density of 500,000 cells per flask. Cells were grown in EGM-2MV BulletKit™ medium (CC-3162, Lonza, Australia), which consisted of EBM-2 basal medium supplemented with an EGM-2 SingleQuots™ kit (Lonza, Australia). Flasks were incubated at 37° C. and 5% CO2, and media was changed 24 h after seeding and then every 48 h. Cells were grown to 70-80% confluence and split every 4-5 days. For all experiments, cells were seeded onto plates or coverslips pre-coated with rat tail collagen Type I (50 μg/ml) for 1 h at 37° C. Cells were allowed to grow to 100% confluence (which typically occurred 1.5-2 days after seeding in a cell culture plate) prior to the start of experiments.
Once the LECs reached confluence, the impact of lymph fluid on LEC migration was assessed using a standard scratch assay. […]
Images taken at several time points after wounding (0, 12 and 24 hours) were analyzed using the Fiji distribution of ImageJ to determine the rate of LEC migration over the area of the scratched wound. To enable quantification of the area of the scratch wound, the brightness and contrast of the images was first adjusted to improve the visibility. An outline of the wound was manually drawn and the area of the wound was quantified at each time point. […]

VEGF receptor (VEGFR)-3 = target: T1, VEGF receptor (VEGFR)-3 (Homo sapiens, UniProt P35916); conditions: endothelial cell lines, including cultured lymphatic endothelial cell lines; cited from earlier work
T1 construct: host or cells: endothelial cell lines, including cultured lymphatic endothelial cell lines
T1 sequence (P35916 25-1363): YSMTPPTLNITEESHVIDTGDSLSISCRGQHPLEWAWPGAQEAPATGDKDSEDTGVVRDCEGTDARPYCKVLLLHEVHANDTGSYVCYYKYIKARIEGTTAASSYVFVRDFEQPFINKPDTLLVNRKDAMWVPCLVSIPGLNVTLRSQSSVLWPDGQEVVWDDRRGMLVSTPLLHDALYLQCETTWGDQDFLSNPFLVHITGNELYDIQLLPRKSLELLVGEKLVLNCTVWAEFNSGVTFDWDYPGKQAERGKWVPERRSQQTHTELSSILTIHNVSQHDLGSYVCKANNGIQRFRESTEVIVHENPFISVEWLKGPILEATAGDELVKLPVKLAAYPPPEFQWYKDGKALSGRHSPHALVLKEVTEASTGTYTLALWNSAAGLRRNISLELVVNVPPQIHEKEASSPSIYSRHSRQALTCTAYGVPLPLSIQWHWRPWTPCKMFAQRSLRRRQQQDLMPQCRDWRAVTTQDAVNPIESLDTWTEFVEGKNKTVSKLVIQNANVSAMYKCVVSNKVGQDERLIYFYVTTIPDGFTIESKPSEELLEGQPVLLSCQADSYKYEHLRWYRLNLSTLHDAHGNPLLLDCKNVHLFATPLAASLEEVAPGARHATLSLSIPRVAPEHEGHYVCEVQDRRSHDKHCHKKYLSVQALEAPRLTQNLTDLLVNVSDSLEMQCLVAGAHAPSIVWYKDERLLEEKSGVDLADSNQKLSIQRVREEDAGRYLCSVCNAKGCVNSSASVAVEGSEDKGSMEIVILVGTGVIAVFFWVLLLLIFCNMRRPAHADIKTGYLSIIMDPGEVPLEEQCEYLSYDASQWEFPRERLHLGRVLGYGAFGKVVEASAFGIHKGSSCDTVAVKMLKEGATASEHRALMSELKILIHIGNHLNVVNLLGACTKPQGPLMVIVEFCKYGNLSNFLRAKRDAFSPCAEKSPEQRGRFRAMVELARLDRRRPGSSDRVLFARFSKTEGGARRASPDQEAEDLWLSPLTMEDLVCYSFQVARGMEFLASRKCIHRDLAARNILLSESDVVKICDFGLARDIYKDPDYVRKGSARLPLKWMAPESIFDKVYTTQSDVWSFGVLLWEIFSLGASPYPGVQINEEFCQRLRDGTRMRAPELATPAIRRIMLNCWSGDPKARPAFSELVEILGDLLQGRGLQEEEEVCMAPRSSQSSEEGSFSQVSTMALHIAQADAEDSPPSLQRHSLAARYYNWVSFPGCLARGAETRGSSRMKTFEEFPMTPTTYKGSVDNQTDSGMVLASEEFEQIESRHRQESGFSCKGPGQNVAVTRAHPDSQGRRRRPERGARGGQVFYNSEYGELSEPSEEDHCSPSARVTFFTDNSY

Q: For CN(C)c1ccc(/C=C2/C(=O)Nc3ccccc32)c2ccccc12 [MAZ51], which “LEC migration induced by HFD-lymph” value [1] is on record?
A: inhibited

Q: What about the “VEGF-C-dependent and VEGF-C-independent VEGFR-3 phosphorylation” value (VEGF receptor (VEGFR)-3) of the same molecule?
A: potently inhibit

From patent US12611415B2, “Methods and compounds for treatment of metabolic disease” (Monash University, priority 2019, dated 2026)
